# Columns and labels:
# [1] = target: T1, Lysyl-tRNA synthetase (KARS) (Homo sapiens, UniProt Q15046); experiment: co-crystal structure at […] Å; MST Kd; also ATP consumption/AMP production by purified KARS; format: binding; design: gene KARS1; KARS70-580, C-terminal 6xHis
# [2] = target: T1, Lysyl-tRNA synthetase (KARS); experiment: biochemical; design: gene KARS1
# T1 sequence (Q15046 70-580): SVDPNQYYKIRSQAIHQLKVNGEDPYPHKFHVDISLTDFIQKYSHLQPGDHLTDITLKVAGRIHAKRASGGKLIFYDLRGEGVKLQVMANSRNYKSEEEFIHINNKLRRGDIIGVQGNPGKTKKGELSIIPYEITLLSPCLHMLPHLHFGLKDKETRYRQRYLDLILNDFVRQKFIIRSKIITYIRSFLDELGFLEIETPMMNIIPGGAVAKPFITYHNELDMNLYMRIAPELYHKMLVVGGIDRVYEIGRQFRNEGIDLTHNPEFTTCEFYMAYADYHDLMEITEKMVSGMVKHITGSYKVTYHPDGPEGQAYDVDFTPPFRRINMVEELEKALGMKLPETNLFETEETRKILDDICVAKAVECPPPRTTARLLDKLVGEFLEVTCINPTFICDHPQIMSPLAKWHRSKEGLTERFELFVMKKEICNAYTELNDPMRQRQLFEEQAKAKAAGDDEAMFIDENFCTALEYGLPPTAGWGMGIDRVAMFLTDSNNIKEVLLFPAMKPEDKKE
smiles,measurement,setting,value
"CC(=O)NCCCC[C@H](N)C(=O)O [AcK, N6-acetyl-L-lysine]",Kd,[1],407 ± 291 µM
NCCCC[C@H](N)C(=O)O [L-lysine],Kd,[2],118 ± 55.5 µM

# — publication PMC11789599, “Co‐Translational Deposition of N ^6‐Acetyl‐L‐Lysine in Nascent Proteins Contributes to the Acetylome in Mammalian Cells” (Advanced Science, 2024)
